Laboratory results taken from PubChem BioAssay AID248 (DTP/NCI, 2004).
“And” between values parts separate entries of the source, which are not always exact repeats. Equal values may be shown once. Inconclusive results and toxic doses are left out.

System: L1210 leukemia ip in BDF1 mice, survival T/C
Test: NCI In Vivo Anticancer Drug Screen. Data for tumor model L1210 Leukemia (intraperitoneal) in B6D2F1 (BDF1) mice
Settings: endpoint: mean survival time, higher = longer survival
Summary of the method: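 Transplantable tumor model; survival measured in treated vs vehicle control mice. Value = treated/control.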

[1] = dose: 100.0 mg/kg/injection, schedule: Q04DX002 (ip), vehicle: saline with Tween-80
[2] = dose: 200.0 mg/kg/injection, schedule: Q04DX002 (ip), vehicle: saline with Tween-80
[3] = dose: 400.0 mg/kg/injection, schedule: Q04DX002 (ip), vehicle: saline with Tween-80
[4] = dose: 100.0 mg/kg/injection, schedule: Q01DX009 (ip), vehicle: Klucel (hydroxypropylcellulose) (HPC)
[5] = dose: 100.0 mg/kg/injection, schedule: Q04DX003 (ip), vehicle: Klucel (hydroxypropylcellulose) (HPC)
[6] = dose: 200.0 mg/kg/injection, schedule: Q01DX009 (ip), vehicle: Klucel (hydroxypropylcellulose) (HPC)
[7] = dose: 200.0 mg/kg/injection, schedule: Q04DX003 (ip), vehicle: Klucel (hydroxypropylcellulose) (HPC)
[8] = dose: 400.0 mg/kg/injection, schedule: Q01DX009 (ip), vehicle: Klucel (hydroxypropylcellulose) (HPC)
[9] = dose: 400.0 mg/kg/injection, schedule: Q04DX003 (ip), vehicle: Klucel (hydroxypropylcellulose) (HPC)
[10] = dose: 50.0 mg/kg/injection, schedule: Q01DX001 (ip), vehicle: saline
[11] = dose: 100.0 mg/kg/injection, schedule: Q01DX001 (ip), vehicle: saline
[12] = dose: 200.0 mg/kg/injection, schedule: Q01DX001 (ip), vehicle: saline
[13] = dose: 400.0 mg/kg/injection, schedule: Q01DX001 (ip), vehicle: saline
[14] = dose: 100.0 mg/kg/injection, schedule: Q01DX009 (ip), vehicle: saline sonified
[15] = dose: 200.0 mg/kg/injection, schedule: Q01DX009 (ip), vehicle: saline sonified
[16] = dose: 400.0 mg/kg/injection, schedule: Q01DX009 (ip), vehicle: saline sonified
[17] = dose: 25.0 mg/kg/injection, schedule: Q01DX009 (ip), vehicle: saline
[18] = dose: 100.0 mg/kg/injection, schedule: Q01DX009 (ip), vehicle: saline with Tween-80
[19] = dose: 100.0 mg/kg/injection, schedule: Q04DX003 (ip), vehicle: saline with Tween-80
[20] = dose: 200.0 mg/kg/injection, schedule: Q01DX009 (ip), vehicle: saline with Tween-80
[21] = dose: 200.0 mg/kg/injection, schedule: Q04DX003 (ip), vehicle: saline with Tween-80
[22] = dose: 400.0 mg/kg/injection, schedule: Q04DX003 (ip), vehicle: saline with Tween-80

With C#CCN(CC#C)C(=O)Nc1ccc(Cl)cc1 the T/C (dose: 25.0 mg/kg/injection, schedule: Q04DX002 (ip), vehicle: saline with Tween-80) was 96 % of control, the T/C (dose: 50.0 mg/kg/injection, schedule: Q04DX002 (ip), vehicle: saline with Tween-80) was 96 % of control and the T/C [1] was 99 % of control and 106 % of control.

For CCSc1ccc2c(cc1=O)C(NC(=S)Nc1ccccc1)CCc1cc(OC)c(OC)c(OC)c1-2 (centres undefined), the T/C (dose: 100.0 mg/kg/injection, schedule: Q04DX003 (ip), vehicle: carboxymethylcellulose (CMC)) was 102 % of control and the T/C (dose: 200.0 mg/kg/injection, schedule: Q04DX003 (ip), vehicle: carboxymethylcellulose (CMC)) was 107 % of control.

For CC(NC(=O)c1ccc(Cl)c(Cl)c1)c1ccc(-c2ccccc2)cc1 (centres undefined), the T/C [1] was 102 % of control, the T/C [2] was 91 % of control and the T/C [3] was 87 % of control.

For COC(=N)c1nn(C2OC(CO)C(O)C2O)c2ncnc(N)c12 (centres undefined), the T/C (dose: 100.0 mg/kg/injection, schedule: Q01DX005 (ip), vehicle: saline) was 115 % of control, the T/C (dose: 200.0 mg/kg/injection, schedule: Q01DX005 (ip), vehicle: saline) was 153 % of control and the T/C (dose: 400.0 mg/kg/injection, schedule: Q01DX005 (ip), vehicle: saline) was 164 % of control.

In the case of O=C1OC(c2ccccc2)=N/C1=C\c1ccccc1Cl, the T/C [1] is reported as 87 % of control and the T/C [2] is reported as 94 % of control.

CC(=O)Nc1cccc2ccc([N+](=O)[O-])cc12 was tested, and the T/C [4] was 96 % of control, the T/C [5] was 94 % of control and the T/C [6] was 98 % of control. The T/C [7] was 105 % of control, the T/C [8] was 98 % of control and the T/C [9] was 98 % of control.

[N-]=[N+]=NC(c1ccccc1)C(I)c1ccccc1 (centres undefined) was tested, and the T/C [10] was 103 % of control, the T/C [11] was 103 % of control and the T/C [12] was 108 % of control. The T/C [13] was 97 % of control.

With Nc1ccc(C(=O)c2ccc(N)cc2)cc1 the T/C [4] was 98 % of control, the T/C (dose: 100.0 mg/kg/injection, schedule: Q04DX002 (ip), vehicle: Klucel (hydroxypropylcellulose) (HPC)) was 107 % of control and the T/C [6] was 120 % of control. For the same compound, the T/C (dose: 200.0 mg/kg/injection, schedule: Q04DX002 (ip), vehicle: Klucel (hydroxypropylcellulose) (HPC)) was 104 % of control, the T/C [8] was 106 % of control and the T/C (dose: 400.0 mg/kg/injection, schedule: Q04DX002 (ip), vehicle: Klucel (hydroxypropylcellulose) (HPC)) was 96 % of control.

For c1ccc(-c2nnn(CCn3nnc(-c4ccccc4)n3)n2)cc1, the T/C [5] was 102 % of control, the T/C [7] was 104 % of control and the T/C [9] was 98 % of control.

For O=C(NCCO)Nc1cccc2c1CCCC2, the T/C [1] was 108 % of control, the T/C [2] was 104 % of control and the T/C [3] was 87 % of control.

With N#CC(/C=C/c1ccccc1)NCC(O)c1ccccc1 (centres undefined) the T/C [14] was 95 % of control, the T/C [15] was 95 % of control and the T/C [16] was 95 % of control.

In the case of CCN(CC)CCCOC(=O)c1ccc(NC(C)(C)[N+](=O)[O-])cc1, the T/C [17] is reported as 98 % of control, the T/C (dose: 50.0 mg/kg/injection, schedule: Q01DX009 (ip), vehicle: saline) is reported as 91 % of control and the T/C [11] is reported as 90 % of control.

For O=C/C=C/c1cccc([N+](=O)[O-])c1, the T/C [10] was 102 % of control, the T/C [11] was 107 % of control and the T/C [12] was 111 % of control.

For CCCCCCCC/C=C\CCCCCCCC(=O)OCCCCCCCCCCCCC, the T/C [14] was 91 % of control, the T/C [15] was 102 % of control and the T/C [16] was 93 % of control.

With COc1ccc(C2(C(=O)O)CCCC2)cc1 the T/C [18] was 102 % of control, the T/C [19] was 103 % of control and the T/C [20] was 96 % of control. The T/C [21] was 108 % of control and the T/C [22] was 97 % of control.

For Cc1cc(NC(=O)NCc2ccc([N+](=O)[O-])cc2)ccc1S(=O)(=O)F, the T/C [19] was 100 % of control, the T/C [21] was 95 % of control and the T/C [22] was 92 % of control.

In the case of NSc1nc2ccccc2s1, the T/C [18] is reported as 95 % of control, the T/C (dose: 100.0 mg/kg/injection, schedule: Q04DX003 (ip), vehicle: saline sonified) is reported as 105 % of control and the T/C [20] is reported as 93 % of control. The T/C (dose: 200.0 mg/kg/injection, schedule: Q04DX003 (ip), vehicle: saline sonified) was 96 % of control and the T/C (dose: 400.0 mg/kg/injection, schedule: Q04DX003 (ip), vehicle: saline sonified) was 107 % of control.

For CCc1ccccc1OS(=O)(=O)c1ccc([N+](=O)[O-])cc1, the T/C [4] was 109 % of control, the T/C [5] was 92 % of control and the T/C [6] was 102 % of control. For the same compound, the T/C [7] was 100 % of control, the T/C [8] was 102 % of control and the T/C [9] was 100 % of control.

With O=C1CCC(c2ccccc2)=NN1c1ccccc1 the T/C [4] was 96 % of control, the T/C [6] was 90 % of control and the T/C [8] was 96 % of control.

With COc1ccccc1N=Nc1c(O)[nH]c2ccccc12 the T/C [11] was 96 % of control, the T/C [12] was 96 % of control and the T/C [13] was 102 % of control.

For O=C(Nc1ccc(I)cc1)Nc1cc(C(F)(F)F)ccc1Cl, the T/C [4] was 100 % of control, the T/C [6] was 93 % of control and the T/C [8] was 88 % of control.

Cc1cc2cccc[n+]2cc1C was tested, and the T/C (dose: 12.5 mg/kg/injection, schedule: Q01DX009 (ip), vehicle: saline) was 95 % of control and the T/C [17] was 98 % of control.

CN(C)c1ccc(/C=C/C=C2\c3ccccc3-c3ccc([N+](=O)[O-])cc32)cc1 was tested, and the T/C [19] was 93 % of control, the T/C [21] was 102 % of control and the T/C [22] was 94 % of control.

Cc1nnc2c([N+](=O)[O-])cccn12 was tested, and the T/C [11] was 98 % of control and the T/C [12] was 103 % of control.

With O=[N+]([O-])c1ccc(OCCCOc2ccccc2)cc1 the T/C [4] was 112 % of control, the T/C [5] was 97 % of control and the T/C [6] was 101 % of control. For the same compound, the T/C [7] was 103 % of control, the T/C [8] was 98 % of control and the T/C [9] was 100 % of control.

With OC(c1ccc(Cl)cc1)(c1ccc(Cl)cc1)C(F)(F)F the T/C (dose: 100.0 mg/kg/injection, schedule: Q01DX009 (sc), vehicle: olive oil, sesame oil, peanut oil) was 113 % of control, the T/C (dose: 100.0 mg/kg/injection, schedule: Q04DX003 (sc), vehicle: olive oil, sesame oil, peanut oil) was 100 % of control and the T/C (dose: 200.0 mg/kg/injection, schedule: Q01DX009 (sc), vehicle: olive oil, sesame oil, peanut oil) was 101 % of control. The T/C (dose: 200.0 mg/kg/injection, schedule: Q04DX003 (sc), vehicle: olive oil, sesame oil, peanut oil) was 97 % of control and the T/C (dose: 400.0 mg/kg/injection, schedule: Q04DX003 (sc), vehicle: olive oil, sesame oil, peanut oil) was 113 % of control.

In the case of Cc1ccc(N=C=C(c2ccc(Cl)cc2)c2ccc(Cl)cc2)cc1, the T/C (dose: 1.56 mg/kg/injection, schedule: Q01DX009 (ip), vehicle: DMSO) is reported as 104 % of control, the T/C (dose: 3.12 mg/kg/injection, schedule: Q01DX009 (ip), vehicle: DMSO) is reported as 93 % of control and the T/C (dose: 6.25 mg/kg/injection, schedule: Q01DX009 (ip), vehicle: DMSO) is reported as 97 % of control and 103 % of control. The T/C (dose: 12.5 mg/kg/injection, schedule: Q04DX002 (ip), vehicle: DMSO) was 105 % of control and the T/C (dose: 25.0 mg/kg/injection, schedule: Q04DX002 (ip), vehicle: DMSO) was 109 % of control.

For CCOC(c1ccccc1)(c1ccccc1)c1ccccc1, the T/C [19] was 101 % of control, the T/C [21] was 90 % of control and the T/C [22] was 91 % of control.

In the case of NC(=S)Nc1ccccc1, the T/C (dose: 5.0 mg/kg/injection, schedule: Q01DX001 (ip), vehicle: saline) is reported as 100 % of control, the T/C (dose: 10.0 mg/kg/injection, schedule: Q01DX001 (ip), vehicle: saline) is reported as 96 % of control and the T/C (dose: 20.0 mg/kg/injection, schedule: Q01DX001 (ip), vehicle: saline) is reported as 102 % of control. The T/C (dose: 40.0 mg/kg/injection, schedule: Q01DX001 (ip), vehicle: saline) was 101 % of control and the T/C (dose: 80.0 mg/kg/injection, schedule: Q01DX001 (ip), vehicle: saline) was 97 % of control.

For O=P(c1ccccc1)(N1CC1)N1CC1, the T/C (dose: 7.5 mg/kg/injection, schedule: Q04DX003 (ip), vehicle: saline) was 100 % of control, the T/C (dose: 15.0 mg/kg/injection, schedule: Q01DX001 (ip), vehicle: saline) was 102 % of control and the T/C (dose: 15.0 mg/kg/injection, schedule: Q04DX003 (ip), vehicle: saline) was 95 % of control. The T/C (dose: 30.0 mg/kg/injection, schedule: Q01DX001 (ip), vehicle: saline) was 107 % of control and the T/C (dose: 30.0 mg/kg/injection, schedule: Q04DX003 (ip), vehicle: saline) was 98 % of control.

In the case of Brc1cscc1-c1c2ccccc2cc2ccccc12, the T/C (dose: 50.0 mg/kg/injection, schedule: Q01DX009 (ip), vehicle: saline with Tween-80) is reported as 106 % of control, the T/C [18] is reported as 98 % of control and the T/C [20] is reported as 98 % of control.
